Assays:
[1] = tested on: ENR+CD organoids (ISC to Paneth cell differentiation); assay: Primary screen: CCh-stimulated lysozyme secretion LYZ.S, 2.5-D 384-well ENR+CD organoid differentiation; assay type: cell-based, mouse; conditions: primary screen
Description: (§1) High-throughput screening.

ENR+CD organoids = assay: Primary screen: ATP (CellTiter-Glo 3D, CTG) cell number/viability, 2.5-D 384-well ENR+CD organoids; conditions: primary screen; for Z.CTG: standard z score;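 as to all read-outs here: compounds given at plating and again on day 3 over a 6-day differentiation from ENR+CV stem-cell-enriched precursors, ATP measured on day 6, plate median as control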
[2] = tested on: ENR+CD organoids (ISC to Paneth cell differentiation); assay: Primary screen: basal (non-stimulated) lysozyme secretion LYZ.NS, 2.5-D 384-well ENR+CD organoid differentiation; assay type: cell-based, mouse
Description: as §1

[3] = dose 0.08 uM, FC vs plate median
[4] = dose 0.40 uM, FC vs plate median
[5] = dose 2.00 uM, FC vs plate median
[6] = dose 10.00 uM, FC vs plate median
[7] = primary screen, dose 0.08 uM, standard z score
[8] = primary screen, dose 0.40 uM, standard z score
[9] = primary screen, dose 2.00 uM, standard z score
[10] = primary screen, dose 10.00 uM, standard z score
[11] = primary screen, standard z score, dose 0.08 uM
[12] = primary screen, standard z score, dose 0.40 uM
[13] = primary screen, standard z score, dose 2.00 uM
[14] = primary screen, standard z score, dose 10.00 uM
[15] = dose 0.08 uM, FC relative to plate median
[16] = dose 0.40 uM, FC relative to plate median
[17] = dose 2.00 uM, FC relative to plate median
[18] = dose 10.00 uM, FC relative to plate median

## NC(=O)Nc1cc(-c2cccc(F)c2)sc1C(=O)N[C@H]1CCCNC1 [AZD7762]
[1]; dose 0.08 uM
  Dose.FC.LYZ.S: 0.019 log2 fold change
[1]; dose 0.40 uM
  Dose.FC.LYZ.S: −0.251 log2 fold change
[1]; dose 2.00 uM
  Dose.FC.LYZ.S: −0.342 log2 fold change
[1]; dose 10.00 uM
  Dose.FC.LYZ.S: −0.369 log2 fold change
ENR+CD organoids; dose 0.08 uM
  Dose.FC.CTG: 0.054 log2 fold change
  Z.CTG (standard z score): 0.129
ENR+CD organoids; dose 0.40 uM
  Dose.FC.CTG: −0.384 log2 fold change
  Z.CTG (standard z score): −0.917
ENR+CD organoids; dose 2.00 uM
  Dose.FC.CTG: −0.804 log2 fold change
  Z.CTG (standard z score): −1.920
ENR+CD organoids; dose 10.00 uM
  Dose.FC.CTG: −1.361 log2 fold change
  Z.CTG (standard z score): −3.251
[2]; primary screen, dose 0.08 uM
  Dose.FC.LYZ.NS: 0.010 log2 fold change
  Z.LYZ.NS (standard z score): 0.084
[2]; primary screen, dose 0.40 uM
  Dose.FC.LYZ.NS: −0.159 log2 fold change
  Z.LYZ.NS (standard z score): −1.385
[2]; primary screen, dose 2.00 uM
  Dose.FC.LYZ.NS: −0.211 log2 fold change
  Z.LYZ.NS (standard z score): −1.835
[2]; primary screen, dose 10.00 uM
  Dose.FC.LYZ.NS: −0.220 log2 fold change
  Z.LYZ.NS (standard z score): −1.917

## CC(=O)O[C@H]1C[C@@H]2CC[C@@H]3[C@H](CC[C@@]4(C)[C@H]3C[C@H]([N+]3(C)CCCCC3)[C@@H]4OC(C)=O)[C@@]2(C)C[C@@H]1[N+]1(C)CCCCC1.[Br-].[Br-] [Pancuronium dibromide]
[1]; [3]
  Dose.FC.LYZ.S: 0.213 log2 fold change
[1]; [4]
  Dose.FC.LYZ.S: 0.094 log2 fold change
[1]; [5]
  Dose.FC.LYZ.S: 0.099 log2 fold change
[1]; [6]
  Dose.FC.LYZ.S: 0.004 log2 fold change
ENR+CD organoids; dose 0.08 uM
  Z.CTG: 0.519
ENR+CD organoids; dose 0.40 uM
  Z.CTG: 0.541
ENR+CD organoids; dose 2.00 uM
  Z.CTG: −0.029
ENR+CD organoids; dose 10.00 uM
  Z.CTG: 0.148
ENR+CD organoids; [3]
  Dose.FC.CTG: 0.217 log2 fold change
ENR+CD organoids; [4]
  Dose.FC.CTG: 0.226 log2 fold change
ENR+CD organoids; [5]
  Dose.FC.CTG: −0.012 log2 fold change
ENR+CD organoids; [6]
  Dose.FC.CTG: 0.062 log2 fold change
[2]; [7]
  Z.LYZ.NS: 1.118
[2]; [8]
  Z.LYZ.NS: 0.406
[2]; [9]
  Z.LYZ.NS: 0.806
[2]; [10]
  Z.LYZ.NS: 0.302
[2]; primary screen; dose 0.08 uM; FC vs plate median
  Dose.FC.LYZ.NS: 0.128 log2 fold change
[2]; primary screen; dose 0.40 uM; FC vs plate median
  Dose.FC.LYZ.NS: 0.047 log2 fold change
[2]; primary screen; dose 2.00 uM; FC vs plate median
  Dose.FC.LYZ.NS: 0.093 log2 fold change
[2]; primary screen; dose 10.00 uM; FC vs plate median
  Dose.FC.LYZ.NS: 0.035 log2 fold change

## CCOc1nc2cccc(C(=O)O)c2n1Cc1ccc(-c2ccccc2-c2nnn[nH]2)cc1 [Candesartan]
[1]; dose 0.08 uM
  Dose.FC.LYZ.S: −0.015 log2 fold change
[1]; dose 0.40 uM
  Dose.FC.LYZ.S: −0.032 log2 fold change
[1]; dose 2.00 uM
  Dose.FC.LYZ.S: −0.092 log2 fold change
[1]; dose 10.00 uM
  Dose.FC.LYZ.S: −0.075 log2 fold change
ENR+CD organoids; dose 0.08 uM
  Dose.FC.CTG: −0.003 log2 fold change
ENR+CD organoids; dose 0.40 uM
  Dose.FC.CTG: −0.125 log2 fold change
ENR+CD organoids; dose 2.00 uM
  Dose.FC.CTG: −0.198 log2 fold change
ENR+CD organoids; dose 10.00 uM
  Dose.FC.CTG: −0.253 log2 fold change
[2]; primary screen, dose 0.08 uM
  Dose.FC.LYZ.NS: 0.013 log2 fold change
[2]; primary screen, dose 0.40 uM
  Dose.FC.LYZ.NS: −0.015 log2 fold change
[2]; primary screen, dose 2.00 uM
  Dose.FC.LYZ.NS: 0.007 log2 fold change
[2]; primary screen, dose 10.00 uM
  Dose.FC.LYZ.NS: −0.051 log2 fold change
[2]; [11]
  Z.LYZ.NS: 0.113
[2]; [12]
  Z.LYZ.NS: −0.128
[2]; [13]
  Z.LYZ.NS: 0.065
[2]; [14]
  Z.LYZ.NS: −0.442

## C[C@]12CC[C@@H]3c4ccc(O)cc4C[C@@H](CCCCCCCCC[S+]([O-])CCCC(F)(F)C(F)(F)F)[C@H]3[C@@H]1CC[C@@H]2O (some centres unmarked) [Fulvestrant]
[1]; dose 0.08 uM
  Dose.FC.LYZ.S: 0.051 log2 fold change
[1]; dose 0.40 uM
  Dose.FC.LYZ.S: −0.049 log2 fold change
[1]; dose 2.00 uM
  Dose.FC.LYZ.S: −0.024 log2 fold change
[1]; dose 10.00 uM
  Dose.FC.LYZ.S: −0.150 log2 fold change
ENR+CD organoids; dose 0.08 uM
  Dose.FC.CTG: 0.119 log2 fold change
ENR+CD organoids; dose 0.40 uM
  Dose.FC.CTG: −0.063 log2 fold change
ENR+CD organoids; dose 2.00 uM
  Dose.FC.CTG: 0.142 log2 fold change
ENR+CD organoids; dose 10.00 uM
  Dose.FC.CTG: −0.204 log2 fold change
[2]; primary screen, dose 0.08 uM
  Dose.FC.LYZ.NS: 0.057 log2 fold change
[2]; primary screen, dose 0.40 uM
  Dose.FC.LYZ.NS: −0.050 log2 fold change
[2]; primary screen, dose 2.00 uM
  Dose.FC.LYZ.NS: 0.000 log2 fold change
[2]; primary screen, dose 10.00 uM
  Dose.FC.LYZ.NS: −0.043 log2 fold change
[2]; [11]
  Z.LYZ.NS: 0.500
[2]; [12]
  Z.LYZ.NS: −0.432
[2]; [13]
  Z.LYZ.NS: 0.003
[2]; [14]
  Z.LYZ.NS: −0.376

## CNC(=O)c1ccc2cc([C@@]3(O)CCn4cncc43)ccc2c1 [TAK-700 (Orteronel)]
[1]; [15]
  Dose.FC.LYZ.S: 0.113 log2 fold change
[1]; [16]
  Dose.FC.LYZ.S: 0.090 log2 fold change
[1]; [17]
  Dose.FC.LYZ.S: 0.093 log2 fold change
[1]; [18]
  Dose.FC.LYZ.S: 0.032 log2 fold change
ENR+CD organoids; [15]
  Dose.FC.CTG: −0.276 log2 fold change
ENR+CD organoids; dose 0.08 uM
  Z.CTG: −0.659
ENR+CD organoids; [16]
  Dose.FC.CTG: −0.024 log2 fold change
ENR+CD organoids; dose 0.40 uM
  Z.CTG: −0.056
ENR+CD organoids; [17]
  Dose.FC.CTG: −0.084 log2 fold change
ENR+CD organoids; dose 2.00 uM
  Z.CTG: −0.202
ENR+CD organoids; [18]
  Dose.FC.CTG: 0.092 log2 fold change
ENR+CD organoids; dose 10.00 uM
  Z.CTG: 0.219
[2]; primary screen, dose 0.08 uM, FC relative to plate median
  Dose.FC.LYZ.NS: 0.176 log2 fold change
[2]; [7]
  Z.LYZ.NS: 1.535
[2]; primary screen, dose 0.40 uM, FC relative to plate median
  Dose.FC.LYZ.NS: 0.182 log2 fold change
[2]; [8]
  Z.LYZ.NS: 1.585
[2]; primary screen, dose 2.00 uM, FC relative to plate median
  Dose.FC.LYZ.NS: 0.121 log2 fold change
[2]; [9]
  Z.LYZ.NS: 1.058
[2]; primary screen, dose 10.00 uM, FC relative to plate median
  Dose.FC.LYZ.NS: −0.002 log2 fold change
[2]; [10]
  Z.LYZ.NS: −0.018

Reference: patent publication US20220323406A1, “METHODS AND COMPOSITIONS FOR DIFFERENTIATING STEM CELLS” (Massachusetts Institute of Technology, priority 2019, published 2022)
